In brackets after ≈: the same amount, converted by molar mass. Read-outs that look alike come from different tables or passages of the source. Ends that are not written are not given here.
Key:
[1] = tested on: diabetic foot ulcer infection; parameters: method as in PMID 18310135; details: Phase III, diabetic foot ulcers; cited from earlier work
LPS (P. aeruginosa) = experiment: Dansyl polymyxin B (DPX) displacement assay, LPS binding; details: DPX bound to P. aeruginosa LPS
Description: The Dansyl polymyxin B (DPX) displacement assay was carried out as described earlier. In brief, the fluorescence of DPX (Invitrogen) bound to LPS (P. aeruginosa) was measured by using a Luminescence spectrometer LS 50B (Perkin Elmer) with excitation and emission-wavelengths of 340 nm and 485 nm, respectively. A predetermined amount of DPX, resulting in 90% saturation of LPS, was added to 1 mL of 3 μg/mL of purified LPS. Small aliquots (5 μL of 1 μg/mL) of test compounds were added under constant stirring in the cuvette, and the displacement of DPX was measured for 30–60 seconds as a decrease in fluorescence. The process was repeated until maximum displacement was reached.
The ability of other cationic molecules to displace DPX molecules bound to LPS (monitored by reduction in fluorescence) assesses their relative ability to bind to LPS [33, 34]. While the highly cationic MSI-78 (+10 charge) displaced 100% of bound DPX (equivalent to that of polymyxin B), peptoid 1 and MX-226 displaced 71% and 73% of bound DPX, respectively. […] A second parameter characterizing the LPS/polycation interaction is the I50, which is defined as the concentration of a polycation that displaces 50% of LPS-bound DPX. The I50 is inversely related to the relative affinity of each molecule for binding sites on LPS.

[2] = tested on: 20 bacterial strains (13 Gram-negative, 7 Gram-positive)
Description: The MICs of test agents were measured using a modified broth micro-dilution method in Difco Mueller Hinton medium, on a panel of bacterial pathogens that were both susceptible and resistant to common antibiotics (S1 File). Briefly, serial dilutions were performed in 0.01% acetic acid containing 0.2% bovine serum albumin at 10-fold the desired final concentration. Ten μL of the 10-fold concentrated test reagents were added to each well of a 96-well polypropylene microtitre plate containing 90 μL of Mueller Hinton media per well. Bacteria were added to the plate from an overnight culture at a final concentration of 2–7 x 10^5 CFU/mL and incubated overnight at 37°C. The MIC is defined as the concentration at which no growth was observed.
Screening of peptoid antimicrobial activity against a panel of multidrug resistant superbugs was done according to the protocol described in the manuscript. The bacterial strains used in this panel included; P. aeruginosa PAO1 strain H103 [1], P. maltophilia ATCC#13637, S. aureus ATCC#25923 [1], E. faecalis ATCC#29212 [2], and E. cloacae 218R, constitutively expressing Class C chromosomal β-lactamase, were from the Hancock lab strains collection. An MRSA clinical isolate was kindly provided by Anthony Chow (Vancouver General Hospital, Vancouver, Canada). Two Klebsiella pneumoniae and two E. coli clinical isolates expressing extended spectrum β-lactamases (ESBL) were kindly provided by George Zhanel (Health Sciences Centre, Winnipeg, Canada). Vancomycin-resistant clinical isolates of Enterococcus faecalis and E. faecium were obtained from Ana M. Paccagnella (BC Centre for Disease Control, Vancouver, Canada). Three clinical isolates (#9, #198 and #213) of multi-drug resistant P. aeruginosa, were kindly provided by Carlos Kiffer (University of São Paulo, Brazil). […] Three P. aeruginosa clinical isolates of the Liverpool epidemic strain (LES) (H1027, H1030 and LES400) were all kindly provided by Craig Winstanley (University of Liverpool, UK). […] All tested bacterial strains were categorized as biohazard level 2 pathogens.

[3] = tested on: bowel perforation and sepsis; parameters: method as in PMID 15294887; details: cited from earlier work
[4] = tested on: P. aeruginosa LES400 (MDR); experiment: microbe, parasite or virus in culture
Summary of the method: (§1)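 Modified broth microdilution in Mueller Hinton medium in polypropylene plates; test agents serially diluted in 0.01% acetic acid with 0.2% BSA at 10-fold final concentration.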

[5] = tested on: P. aeruginosa H1027 (MDR); experiment: microbe, parasite or virus in culture
Summary of the method: as §1

[6] = tested on: E. cloacae 218R Class C β-lactamase; experiment: microbe, parasite or virus in culture
Summary of the method: as §1

E. faecalis W61950 (VRE) = experiment: microbe, parasite or virus in culture
Summary of the method: as §1

E. coli 63103 (ESBL) = experiment: microbe, parasite or virus in culture
Summary of the method: as §1

P. aeruginosa 9 (MDR) = experiment: microbe, parasite or virus in culture
Summary of the method: as §1

E. coli 64771 (ESBL) = experiment: microbe, parasite or virus in culture
Summary of the method: as §1

[7] = tested on: P. aeruginosa H103 (wild type); experiment: microbe, parasite or virus in culture
Summary of the method: as §1

P. maltophilia ATCC13637 = experiment: microbe, parasite or virus in culture
Summary of the method: as §1

[8] = tested on: K. pneumonia 61962 (ESBL); experiment: microbe, parasite or virus in culture
Summary of the method: as §1

P. aeruginosa 213 (MDR) = experiment: microbe, parasite or virus in culture
Summary of the method: as §1

S. aureus C623 (MRSA) = experiment: microbe, parasite or virus in culture
Summary of the method: as §1

E. faecalis F43559 (VRE) = experiment: microbe, parasite or virus in culture
Summary of the method: as §1

S. aureus ATCC25923 = experiment: microbe, parasite or virus in culture
Summary of the method: as §1

E. faecium T62764 (VRE) = experiment: microbe, parasite or virus in culture
Summary of the method: as §1

E. faecium mic80 (VRE) = experiment: microbe, parasite or virus in culture
Summary of the method: as §1

E. faecalis ATCC29212 = experiment: microbe, parasite or virus in culture
Summary of the method: as §1

[9] = tested on: K. pneumonia 63575 (ESBL); experiment: microbe, parasite or virus in culture
Summary of the method: as §1

P. aeruginosa 198 (MDR) = experiment: microbe, parasite or virus in culture
Summary of the method: as §1

erythrocytes = experiment: Hemolytic activity (HD10/HD50); type: cell-based
Excerpt: Table 1 Characteristics of antimicrobial peptoids, screened for activity against B. subtilis and E. coli bacterial strains. | column: HD10 / HD50

[10] = tested on: P. aeruginosa H1030 (MDR); experiment: microbe, parasite or virus in culture; details: P. aeruginosa H1030 (MDR)
Summary of the method: as §1

NIH 3T3 cells = experiment: Metabolic activity, MTS assay; type: cell-based, mouse
Summary of the method: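 Mouse NIH 3T3 fibroblast monolayers, about 5000 cells per well, washed and exposed to serially diluted peptoids in Hank's balanced salt solution. Metabolic activity read by MTS; average of six replicate trials.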

B. subtilis ATCC 6633 = type: cell-based
Summary of the method: (§2)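 MICs determined by 2:1 serial broth microdilution in cation-adjusted Mueller-Hinton broth per CLSI M7-A6, using inoculum at 1 x 10^6 CFU/mL mixed 1:1 with peptoid solution. Three independent replicates, each with two parallel trials.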

E. coli ATCC 35218 = type: cell-based
Summary of the method: as §2

Compound: GIGKFLKKAKKFGKAFVKILKK-NH2 (C-terminus assumed) [MSI-78, pexiganan, reference compound]
- patients in whom infection was eliminated or significantly reduced [1]: over 90%
- bound DPX displaced (maximum displacement) (LPS (P. aeruginosa)): 100%
- IC50 (LPS (P. aeruginosa); read-out: I50 (concentration that displaces 50% of LPS-bound DPX)): 1.4 µM
- MICs, range against all Gram-positive strains tested [2]: 4 to 256 µg/mL
- median MIC against all Gram-positive strains tested [2]: 16 µg/mL
- endotoxin plasma levels ([3]; rat model of sepsis): reduce endotoxin plasma levels
- reduction of bacterial counts ([3]; rat, caecal ligation and puncture model): four orders of magnitude
- MIC ([4]; LES400 (MDR)): 4 µg/mL
- MIC ([5]; H1027 (MDR)): 2 µg/mL
- MIC ([6]; 218R Class C β-lactamase): 2 µg/mL
- MIC (E. faecalis W61950 (VRE); W61950 (VRE)): 256 µg/mL
- MIC (E. coli 63103 (ESBL); 63103 (ESBL)): 16 µg/mL
- MIC (P. aeruginosa 9 (MDR); 9 (MDR)): 16 µg/mL
- MIC (E. coli 64771 (ESBL); 64771 (ESBL)): 2 µg/mL
- MIC ([7]; H103 (wild type)): 1 µg/mL
- MIC (P. maltophilia ATCC13637; ATCC13637): 2 µg/mL
- MIC [8]: 32 µg/mL
- MIC (P. aeruginosa 213 (MDR); 213 (MDR)): 8 µg/mL
- MIC (S. aureus C623 (MRSA); C623): 16 µg/mL
- MIC (E. faecalis F43559 (VRE); F43559 (VRE)): 16 µg/mL
- MIC (S. aureus ATCC25923; ATCC25923): 64 µg/mL
- MIC (E. faecium T62764 (VRE); T62764 (VRE)): 8 µg/mL
- MIC (E. faecium mic80 (VRE); mic80 (VRE)): 4 µg/mL
- MIC (E. faecalis ATCC29212; ATCC29212): 16 µg/mL
- MIC [9]: 8 µg/mL
- MIC (P. aeruginosa 198 (MDR); 198 (MDR)): 4 µg/mL

Compound: CC(C)[C@H](C)N(CC(N)=O)C(=O)CN(C(=O)CN(CCCCN)C(=O)CN(C(=O)CN(C(=O)CN(CCCCN)C(=O)CN(C(=O)CN(C(=O)CN(CCCCN)C(=O)CN(C(=O)CN(C(=O)CNCCCCN)[C@@H](C)C(C)C)[C@@H](C)C(C)C)[C@@H](C)C(C)C)[C@@H](C)C(C)C)[C@@H](C)C(C)C)[C@@H](C)C(C)C)[C@@H](C)C(C)C [Peptoid 1-Nsdpall, H-(NLys-Nsdp-Nsdp)4-NH2]
- HD10 (hemolytic activity) (erythrocytes): >200 / >200
- HD50 (hemolytic activity) (erythrocytes): >200 / >200
- MIC ([4]; LES400 (MDR)): 32 µg/mL (≈ 20.7 µM)
- MIC ([5]; H1027 (MDR)): 4 µg/mL (≈ 2.59 µM)
- MIC ([6]; 218R Class C β-lactamase): 32 µg/mL (≈ 20.7 µM)
- MIC (E. faecalis W61950 (VRE); W61950 (VRE)): 128 µg/mL (≈ 82.7 µM)
- MIC (E. coli 63103 (ESBL); 63103 (ESBL)): 64 µg/mL (≈ 41.4 µM)
- MIC (P. aeruginosa 9 (MDR); 9 (MDR)): 256 µg/mL (≈ 165 µM)
- MIC (E. coli 64771 (ESBL); 64771 (ESBL)): 16 µg/mL (≈ 10.3 µM)
- MIC ([7]; H103 (wild type)): 32 µg/mL (≈ 20.7 µM)
- MIC (P. maltophilia ATCC13637; ATCC13637): 1 µg/mL (≈ 0.646 µM)
- MIC [8]: 128 µg/mL (≈ 82.7 µM)
- MIC (P. aeruginosa 213 (MDR); 213 (MDR)): 64 µg/mL (≈ 41.4 µM)
- MIC (S. aureus C623 (MRSA); C623): 8 µg/mL (≈ 5.17 µM)
- MIC (E. faecalis F43559 (VRE); F43559 (VRE)): 128 µg/mL (≈ 82.7 µM)
- MIC (S. aureus ATCC25923; ATCC25923): 16 µg/mL (≈ 10.3 µM)
- MIC (E. faecium T62764 (VRE); T62764 (VRE)): 4 µg/mL (≈ 2.59 µM)
- MIC (E. faecium mic80 (VRE); mic80 (VRE)): 16 µg/mL (≈ 10.3 µM)
- MIC (E. faecalis ATCC29212; ATCC29212): 64 µg/mL (≈ 41.4 µM)
- MIC [9]: 128 µg/mL (≈ 82.7 µM)
- MIC (P. aeruginosa 198 (MDR); 198 (MDR)): 128 µg/mL (≈ 82.7 µM)
- MIC [10]: 32 µg/mL (≈ 20.7 µM)
- ID50 (inhibitory dose, metabolic activity) (NIH 3T3 cells): 64 µM
- MIC B. subtilis (B. subtilis ATCC 6633): 0.78 µM (≈ 1.21 µg/mL)
- MIC E. coli (E. coli ATCC 35218): 25 µM (≈ 38.7 µg/mL)

Compound: H-(NLys-Npm-Npm)4-NH2 [Peptoid 1ach]
- HD10 (hemolytic activity) (erythrocytes): 183
- HD50 (hemolytic activity) (erythrocytes): > 200
- MIC ([4]; P. aeruginosa LES400 (MDR)): 4 µg/mL
- MIC ([5]; P. aeruginosa H1027 (MDR)): 2 µg/mL
- MIC ([6]; E. cloacae 218R Class C β-lactamase): 16 µg/mL
- MIC (E. faecalis W61950 (VRE); E. faecalis W61950 (VRE)): 32 µg/mL
- MIC (E. coli 63103 (ESBL); E. coli 63103 (ESBL)): 16 µg/mL
- MIC (P. aeruginosa 9 (MDR); P. aeruginosa 9 (MDR)): 64 µg/mL
- MIC (E. coli 64771 (ESBL); E. coli 64771 (ESBL)): 8 µg/mL
- MIC ([7]; P. aeruginosa H103 (wild type)): 4 µg/mL
- MIC (P. maltophilia ATCC13637; P. maltophilia ATCC13637): 4 µg/mL
- MIC ([8]; K. pneumonia 61962 (ESBL)): 128 µg/mL
- MIC (P. aeruginosa 213 (MDR); P. aeruginosa 213 (MDR)): 8 µg/mL
- MIC (S. aureus C623 (MRSA); S. aureus C623 (MRSA)): 4 µg/mL
- MIC (E. faecalis F43559 (VRE); E. faecalis F43559 (VRE)): 32 µg/mL
- MIC (S. aureus ATCC25923; S. aureus ATCC25923): 4 µg/mL
- MIC (E. faecium T62764 (VRE); E. faecium T62764 (VRE)): 2 µg/mL
- MIC (E. faecium mic80 (VRE); E. faecium mic80 (VRE)): 4 µg/mL
- MIC (E. faecalis ATCC29212; E. faecalis ATCC29212): 8 µg/mL
- MIC ([9]; K. pneumonia 63575 (ESBL)): 64 µg/mL
- MIC (P. aeruginosa 198 (MDR); P. aeruginosa 198 (MDR)): 8 µg/mL
- MIC [10]: 64 µg/mL
- ID50 (inhibitory dose, metabolic activity) (NIH 3T3 cells; NIH 3T3 cells, MTS assay, 3 hours): 16 µM
- MIC B. subtilis (B. subtilis ATCC 6633): 1.6 µM
- MIC E. coli (E. coli ATCC 35218): 12.5 µM
